# Measured values: publication PMC12554789, “Benzoxazole Derivatives as Potent FXR and PPARα Dual Agonists With Anti‐Fibrotic and Metabolic Regulatory Effects” (MedComm, 2025)
# Tests used:
# FXR LBD = molecular target: T1, FXR LBD (Homo sapiens, UniProt Q96RI1); experiment: Thermal shift assay, FXR LBD; assay type: binding; conditions: ligand 20 µM
# T1 construct: purchased Sigma SRP2137
# T1 sequence (Q96RI1 262-486 limits assumed): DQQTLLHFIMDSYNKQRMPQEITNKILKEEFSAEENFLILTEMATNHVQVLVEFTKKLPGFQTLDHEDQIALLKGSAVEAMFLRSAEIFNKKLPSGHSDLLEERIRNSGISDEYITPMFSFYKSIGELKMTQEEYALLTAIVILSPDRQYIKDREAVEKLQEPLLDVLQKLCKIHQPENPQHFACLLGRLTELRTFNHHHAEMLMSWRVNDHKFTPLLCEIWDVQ
# [1] = system: TAA-induced liver fibrosis model; experiment: TAA-induced liver fibrosis mouse model (8 weeks); assay type: in vivo
# Method: To further explore the effects on fibrosis suppression, a thioacetamide (TAA)-induced liver fibrosis model was used. Liver fibrosis was induced by intraperitoneal injection of TAA at a dose of 150 mg/kg, administered three times a week for 8 weeks. […] After the treatment period, the mice were euthanized using CO2. Serum was collected for biochemical analysis, and liver tissues were immediately harvested and frozen in liquid nitrogen for subsequent quantitative reverse transcription polymerase chain reaction (qRT-PCR), western blotting, and biological analysis. Furthermore, some liver samples were fixed in 4% paraformaldehyde buffered to neutral pH for histochemical analysis. For long-term storage, remaining liver samples were stored at -80°C in a deep freezer. […] Liver fibrosis was induced by administering TAA intraperitoneally at a dose of 150 mg/kg three times a week for a duration of […]. […] Upon completion of the treatment period, mice were euthanized using CO2, and serum and liver tissue samples were harvested for subsequent evaluation. Serum samples collected from mice were incubated at room temperature for 20 min before being centrifuged at 3000 rpm for 20 min to separate blood cells and clotting factors. Serum alanine transaminase (ALT) and aspartate aminotransferase (AST) activities were measured using ALT and AST assay kits (Asan Pharm, Seoul, Republic of Korea) to assess liver injury. Blood urea nitrogen (BUN) levels in the serum were analyzed using a commercial assay kit ([…]-BUN, […] Diagnostics, Seoul, Republic of Korea; catalog number 1120171) following the manufacturer's guidelines. Creatinine levels in the serum were quantified using the […] assay kit ([…] Diagnostics; catalog number 1120051) in accordance with the manufacturer's instructions. Liver and kidney tissues were processed to detect histological changes through the following procedures. The tissues were fixed in 4% paraformaldehyde, and paraffin-embedded sections were prepared for H&E staining according to standard procedures. […]
# PPARα LBD = molecular target: T2, PPARα LBD (Homo sapiens, UniProt Q07869); experiment: Thermal shift assay, PPARα LBD; assay type: binding; conditions: ligand 20 µM
# T2 construct: purchased Sigma SRP2054
# T2 sequence (Q07869 239-466 limits assumed): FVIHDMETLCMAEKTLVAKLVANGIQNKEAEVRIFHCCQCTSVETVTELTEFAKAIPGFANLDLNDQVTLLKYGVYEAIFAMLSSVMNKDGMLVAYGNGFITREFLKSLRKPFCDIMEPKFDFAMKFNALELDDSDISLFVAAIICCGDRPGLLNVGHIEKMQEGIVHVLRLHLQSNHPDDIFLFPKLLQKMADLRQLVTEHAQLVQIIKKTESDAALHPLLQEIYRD
Melting temperature of FXR LBD (FXR LBD),Melting temperature of PPARα LBD (PPARα LBD),Compound,Damaged hepatocytes (H&E) ([1]; TAA mice),"Serum AST level ([1]; TAA mice, oral 3 mg/kg daily, increase still higher than in MHY5396 group)","Protection against fibrosis ([1]; TAA model, MHY5396 versus OCA)"
altered,–,"CC[C@H]1[C@@H](O)[C@@H]2[C@H](CC[C@]3(C)[C@@H]([C@H](C)CCC(=O)O)CC[C@@H]23)[C@@]2(C)CC[C@@H](O)C[C@@H]12 [OCA, obeticholic acid]",fewer damaged hepatocytes,smaller increase in AST levels than that in the TAA group,protective effects against fibrosis
–,altered,CC(C)(Oc1ccc(C(=O)c2ccc(Cl)cc2)cc1)C(=O)O [fenofibric acid],–,–,–
